Laboratory results as given in patent publication US8901110B2, “Use of biomarkers in methods for the treatment of hepatocellular carcinoma” (Celgene Corporation, priority 2012, dated 2014).

Assays:
[1] = system: FOCUS cell line (poorly differentiated HCC cell line); assay: Wound healing assay, FOCUS cell line; type: cell-based; conditions: FIG. 7
Protocol: (§1) 1. Cell seeding: A grid on the underside of the plate (60 mm) was drawn according to the paper diagram. Cells were seeded on 60 mm dish (aimed for confluent cells).
(§2) 2. Scratch wound: Using a tip (green), a scratch wound was made. The locations of the wounds were recorded by drawing on a paper. SF DMEM+trypsin aliquot was retrieved from the incubator, and the media/floating cells from the dish was aspirated. Cells were washed with DMEM+Trypsin to remove cells that have not been completely scratched away from the wound. Then the dish was filled with 4 ml of 10% FBS DMEM.
(§3) 3. Taking photographs: The marker was included on the top of the image frame so the same wound area can be kept track of. Then pictures of those wounds for the indicated time points were taken. Results were expressed as percentage of wound closure, as an index of cell migration, normalized to the initial width.
In another set of experiments, the effects of LM and Compound A on HCC cell migration were assessed using wound healing assay in FOCUS cell line (poorly differentiated HCC cell line).

[2] = system: Focus cells (poorly differentiated HCC cell line); assay: Cell migration assay (migration chamber), Focus cell line; type: cell-based
Protocol: (§4) Focus and Hub7 cells were treated with 10 μM of LM in DMSO or DMSO as a control for 24 hrs. The cells were transferred in a migration chamber (BD Biosciences). The lower chamber was filled with 10% FBS-containing medium as a chemoattractant and was separated from the upper chamber by a 8 μm pore membrane. After 16 hrs, the remaining cells in the upper chamber (non-migrated cells) were removed and the cell attached to the bottom of the membrane (migrated cells) were stained with crystal violet and counted using Stereologer (SRC) in 10 different fields of the membrane.
(§5) In another set of experiments, the effects of LM and Compound A on HCC cell migration and invasion were assessed using procedures similar to those described above using FOCUS cell line (poorly differentiated HCC cell line).

[3] = system: HAK-1A cell line (well differentiated HCC cell line); assay: Wound healing assay, HAK-1A cell line; type: cell-based; conditions: FIG. 6
Protocol: In another set of experiments, the effects of LM and Compound A on HCC cell migration were assessed using wound healing assay in HAK-1A cell line (well differentiated HCC cell line). The following procedures were used.
as §1, §2, §3

[4] = system: HAK1A-J xenograft; assay: HAK1A-J xenograft models (tumor volume); type: in vivo; conditions: male mice; compared with control or LM treated mice; FIG. 21
Protocol: Effects of LM and Compound A in HAK1A-J xenograft models were examined using 50 male mice 4 weeks of age. Anti-tumor effects of LM and Compound A were assessed following the xenograft by measuring tumor volume after the treatment by the drugs.

[5] = system: Focus cells (poorly differentiated HCC cell line); assay: Cell invasion assay (Matrigel-coated chamber), Focus cell line; type: cell-based
Protocol: (§6) Focus and Hub7 cells were treated with 10 μM of LM in DMSO or DMSO as a control for 24 hrs. The cells were transferred in a migration chamber coated with Matrigel (BD Biosciences). After 16 hrs, invasive cells attached to the bottom of the membrane were stained/counted and normalized by the number of migrative cells in a corresponding non-coated migration chamber.
as §5

[6] = system: HAK-1A cell line (well differentiated HCC cell line); assay: Cell migration assay (migration chamber), HAK-1A cell line; type: cell-based; conditions: FIG. 3
[7] = system: HAK-1B cell line (poorly differentiated HCC cell line); assay: Wound healing assay, HAK-1B cell line; type: cell-based; conditions: FIG. 8
Protocol: as §1, §2, §3
In another set of experiments, the effects of LM and Compound A on HCC cell migration were assessed using wound healing assay in HAK-1B cell line (poorly differentiated HCC cell line).

[8] = system: HAK-1B cell line (poorly differentiated HCC cell line); assay: Cell migration assay (migration chamber), HAK-1B cell line; type: cell-based; conditions: FIG. 4
Protocol: as §4
(§7) In another set of experiments, the effects of LM and Compound A on HCC cell migration and invasion were assessed using procedures similar to those described above, except that HAK-1B cell line (poorly differentiated HCC cell line) was employed.

[9] = system: HAK1A-J xenograft; assay: HAK1A-J xenograft models, pilot study (tumor volume); type: in vivo, mice; conditions: compared with control, FIG. 19
Protocol: Effects of LM and Compound A in HAK1A-J xenograft models were examined in a pilot study using 5 animals (mice). Anti-tumor effects of LM and Compound A were assessed following the xenograft by measuring tumor volume after the treatment by the drugs.

[10] = system: HCC cell lines Huh7, FOCUS, HAK-1A and HAK-1B; assay: MTS assay (cytotoxicity); type: cell-based; conditions: 24 or 72 hours; FIG. 17
Protocol: MTS assay was performed to evaluate the toxicity of Compound A for HCC cell lines Huh7, FOCUS, HAK-1A and HAK-1B. Compound A, at various concentrations ranging from […], was incubated with the specified cells for 24 or 72 hours.

[11] = system: TCF-4J isoform dependent target genes; assay: qRT-PCR of TCF-4J responsive target genes in xenograft tumors; type: in vivo, mice; conditions: for mRNA expression: HAK1A-J xenograft models, legend of FIG. 22, genes not named
Protocol: Effects of LM and Compound A on expression of TCF-4J responsive target genes in HAK-1A xenograft tumors were assessed by measuring mRNA expression levels of TCF-4J isoform dependent target genes in xenograft tumors treated with LM, Compound A and control vehicle. The following procedures were used: Total RNA was extracted from tumors using TRIzol Reagent, and reverse transcription was performed with First Strand cDNA Synthesis Kit for RT-PCR (AMV). Quantitative real-time PCR was carried out on a Mastercycler ep realplex instrument and software, using SYBR Green PCR reagents. Relative quantification was performed using ΔΔCt method, normalizing to 18S rRNA. Dissociation curves were generated to evaluate PCR product specificity and purity.

[12] = system: HAK-1B cell line (poorly differentiated HCC cell line); assay: Cell invasion assay (Matrigel-coated chamber), HAK-1B cell line; type: cell-based; conditions: HAK-1B (printed HAK-1AB), FIG. 4
Protocol: as §6, §7

[13] = system: TCF-4; assay: Western blot of nuclear TCF-4 expression after LM treatment; type: cell-based; conditions: 10 μM, 24 hrs; poorly-differentiated cells (Focus); normalized by lamin; FIG. 1
Protocol: Focus and Hub7 cells were treated with 10 μM of lenalidomide (“LM”) in DMSO or DMSO as a control for 24 hrs. Nuclear and cytosolic proteins were separately extracted and the expression of TCF-4 was analyzed by western blot. Nuclear expression of both long and short isoforms of TCF-4 was qualified using ImageJ (NIH) and normalized by expression of lamin.

[14] = another set of experiments, FOCUS, poorly differentiated, FIG. 5
[15] = xenograft tumors, ΔΔCt, normalized to 18S rRNA, FIG. 22

Compound | cell migration (wound closure) [1] | cell migration [2, 14] | cell migration (wound closure) [3] | tumor volume [4] | cell invasion [5, 14] | cell migration [6] | cell migration [8] | tumor volume [9] | mRNA expression [11] | also measured
Cc1nc2cccc(N)c2c(=O)n1C1CCC(=O)NC1=O (stereo not drawn) [Compound A, 3-(5-amino-2-methyl-4-oxo-4H-quinazolin-3-yl)-piperidine-2,6-dione] | reduced cell migration | did not inhibit cell migration | did not affect the cell migration | much more significantly reduced the volume of tumors | inhibited cell invasion | did not affect the cell migration | inhibited cell migration | significantly reduced the volume of tumors | reduction of mRNA expression | cell migration (wound closure) [7]: reduced cell migration; HCC cell proliferation [10]: no effect on HCC cell proliferation; mRNA level of ANXA1 [11, 15]: reduced; mRNA level of ASPH [11, 15]: reduced; mRNA level of CAMK2N1 [11, 15]: reduced; mRNA level of CLDN2 [11, 15]: reduced; mRNA level of GPR56 [11, 15]: reduced; mRNA level of JAG1 [11, 15]: reduced; cell invasion [12]: inhibited cell invasion
Nc1cccc2c1CN(C1CCC(=O)NC1=O)C2=O (stereo not drawn) [LM, 1-oxo-2-(2,6-dioxopiperidin-3-yl)-4-aminoisoindoline, reference compound] | reduced cell migration | did not inhibit cell migration | did not affect the cell migration | reduction of tumor volume was observed | inhibited cell invasion | did not affect the cell migration | inhibited cell migration | significantly reduced the volume of tumors | reduction of mRNA expression | cell migration ([2]; 10 μM, 24 hrs, migrated cells counted after 16 hrs, Focus, FIG. 2): inhibited cell migration; cell invasion ([5]; 10 μM, 24 hrs, invasive cells after 16 hrs, normalized by migrative cells, Focus, FIG. 2): inhibited cell invasion; TCF-4 expression, short and long forms (nuclear) [13]: decreased
